The target of data set [1] is T1, Matrix metalloproteinase-9 (Homo sapiens, UniProt P14780). The data set can be described thus: Inhibition of MMP-9 homodimerization in human U343MG cells assessed as reduction in cell invasion at 25 nM measured after 24 hrs by p-formaldehyde/crystal violet staining based matrigel basement membrane transwell assay.
Data set [2] addresses T1, Matrix metalloproteinase-9. The conditions noted are these: U-87MG ATCC, 25 nM.
Description: Inhibition of MMP-9 homodimerization in human U87MG cells assessed as reduction in cell invasion at 25 nM measured after 24 hrs by p-formaldehyde/crystal violet staining based matrigel basement membrane transwell assay
Data set [3] concerns the target T1, Matrix metalloproteinase-9. The conditions noted are these: T98G, 25 nM.
Description: Inhibition of MMP-9 homodimerization in human T98G cells assessed as reduction in cell invasion at 25 nM measured after 24 hrs by p-formaldehyde/crystal violet staining based matrigel basement membrane transwell assay
In a further data set the target is T2, Interstitial collagenase (Homo sapiens, UniProt P03956).
T2 sequence (P03956 whole entry): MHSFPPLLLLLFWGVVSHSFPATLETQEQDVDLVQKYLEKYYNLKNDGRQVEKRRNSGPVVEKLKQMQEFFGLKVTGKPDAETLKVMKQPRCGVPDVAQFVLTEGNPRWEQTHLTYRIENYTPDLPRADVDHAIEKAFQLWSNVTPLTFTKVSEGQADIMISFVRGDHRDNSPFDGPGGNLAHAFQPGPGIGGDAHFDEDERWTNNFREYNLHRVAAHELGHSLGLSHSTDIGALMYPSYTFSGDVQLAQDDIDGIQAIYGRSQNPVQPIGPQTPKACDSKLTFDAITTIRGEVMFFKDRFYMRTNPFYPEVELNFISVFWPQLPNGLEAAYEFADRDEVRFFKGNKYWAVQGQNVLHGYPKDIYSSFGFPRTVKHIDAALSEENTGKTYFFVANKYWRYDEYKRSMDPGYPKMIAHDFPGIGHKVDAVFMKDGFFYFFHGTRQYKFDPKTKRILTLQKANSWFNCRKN
The data set can be described thus: Inhibition of p-aminophenylmercuric acetate activated human rheumatoid synovial fibroblast MMP-1 pretreated for 4 hrs followed by Mca-Lys-Pro-Leu-Gly-Leu-Dap(Dnp)-Ala-Arg-NH2 fluorogenic substrate addition measured every 15 secs for 20 mins by fluorimetric assay.

In data set [4] the target is Matrix metalloproteinase-14 (Homo sapiens, UniProt P50281). Kind of data set: Inhibition of recombinant human MMP-14 catalytic domain pretreated for 4 hrs followed by Mca-Lys-Pro-Leu-Gly-Leu-Dap(Dnp)-Ala-Arg-NH2 fluorogenic substrate addition measured every 15 secs for 20 mins by fluorimetric assay.
The target in data set [5] is 72 kDa type IV collagenase (Homo sapiens, UniProt P08253). Kind of data set: Inhibition of p-aminophenylmercuric acetate activated recombinant human MMP-2 expressed in CHO cells pretreated for 4 hrs followed by Mca-Lys-Pro-Leu-Gly-Leu-Dap(Dnp)-Ala-Arg-NH2 fluorogenic substrate addition measured every 15 secs for 20 mins by fluorimetric assay. The format is cell-based.
Sequence of 72 kDa type IV collagenase (P08253 whole entry): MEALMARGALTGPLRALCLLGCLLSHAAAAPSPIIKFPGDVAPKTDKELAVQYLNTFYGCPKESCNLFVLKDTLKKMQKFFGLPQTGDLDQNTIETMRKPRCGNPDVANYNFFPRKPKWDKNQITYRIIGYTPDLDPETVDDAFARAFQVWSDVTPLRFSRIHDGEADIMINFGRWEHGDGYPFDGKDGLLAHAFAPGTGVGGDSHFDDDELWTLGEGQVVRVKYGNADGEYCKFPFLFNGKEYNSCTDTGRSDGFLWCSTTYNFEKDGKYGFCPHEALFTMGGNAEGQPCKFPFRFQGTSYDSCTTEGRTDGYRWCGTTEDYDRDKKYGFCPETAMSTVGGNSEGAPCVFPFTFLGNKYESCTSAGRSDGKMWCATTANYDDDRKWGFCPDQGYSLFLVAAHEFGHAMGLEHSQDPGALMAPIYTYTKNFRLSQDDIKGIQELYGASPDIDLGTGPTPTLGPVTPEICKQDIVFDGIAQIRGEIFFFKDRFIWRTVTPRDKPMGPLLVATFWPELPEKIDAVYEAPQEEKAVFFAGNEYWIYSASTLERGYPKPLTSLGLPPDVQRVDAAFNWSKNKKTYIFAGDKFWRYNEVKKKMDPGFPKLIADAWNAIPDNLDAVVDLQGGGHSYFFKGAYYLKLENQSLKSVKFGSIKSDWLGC

The target of data set [6] is T1, Matrix metalloproteinase-9. Kind of data set: Inhibition of p-aminophenylmercuric acetate activated recombinant human MMP-9 expressed in CHO cells pretreated for 4 hrs followed by Mca-Lys-Pro-Leu-Gly-Leu-Dap(Dnp)-Ala-Arg-NH2 fluorogenic substrate addition measured every 15 secs for 20 mins by fluorimetric assay. The class given is cell-based.
The species named for another data set is Homo sapiens. Kind of data set: Selectivity ratio of IC50 for p-aminophenylmercuric acetate activated human rheumatoid synovial fibroblast MMP-1 to IC50 for p-aminophenylmercuric acetate activated recombinant human MMP-9.
Data set [7] deals with T1, Matrix metalloproteinase-9. The data set can be described thus: Inhibition of MMP-9 homodimerization in human U87MG cells assessed as reduction in cell invasion at 5 to 25 nM measured after 24 hrs by p-formaldehyde/crystal violet staining based matrigel basement membrane transwell assay. The conditions noted are these: U-87MG ATCC.
Data set [8] in a line: Antiproliferative activity against human U343MG cells at 5 to 25 nM measured after 24 hrs by MTS assay. The class given is cell-based. To be noted: 0.025 µM. A general note: Formazan colour is commonly taken as a measure of viable cells.
In data set [9] the target is T1, Matrix metalloproteinase-9. Kind of data set: Inhibition of MMP-9 homodimerization in human T98G cells assessed as reduction in cell invasion at 5 to 25 nM measured after 24 hrs by p-formaldehyde/crystal violet staining based matrigel basement membrane transwell assay.
Data set [10] in a line: Antiproliferative activity against human U87MG cells at 5 to 25 nM measured after 24 hrs by MTS assay. The format is cell-based. The conditions noted are these: u-87mg atcc, 0.025 µM.
Data set [11] can be described thus: Antiproliferative activity against human T98G cells at 5 to 25 nM measured after 24 hrs by MTS assay. The format is cell-based. To be noted: 0.025 µM.

Broadly, the IC50 is the concentration that inhibits the measured activity by half.

Calls of active or inactive are those of the source. No cut-off for these calls is given here.

T1 sequence (P14780 whole entry): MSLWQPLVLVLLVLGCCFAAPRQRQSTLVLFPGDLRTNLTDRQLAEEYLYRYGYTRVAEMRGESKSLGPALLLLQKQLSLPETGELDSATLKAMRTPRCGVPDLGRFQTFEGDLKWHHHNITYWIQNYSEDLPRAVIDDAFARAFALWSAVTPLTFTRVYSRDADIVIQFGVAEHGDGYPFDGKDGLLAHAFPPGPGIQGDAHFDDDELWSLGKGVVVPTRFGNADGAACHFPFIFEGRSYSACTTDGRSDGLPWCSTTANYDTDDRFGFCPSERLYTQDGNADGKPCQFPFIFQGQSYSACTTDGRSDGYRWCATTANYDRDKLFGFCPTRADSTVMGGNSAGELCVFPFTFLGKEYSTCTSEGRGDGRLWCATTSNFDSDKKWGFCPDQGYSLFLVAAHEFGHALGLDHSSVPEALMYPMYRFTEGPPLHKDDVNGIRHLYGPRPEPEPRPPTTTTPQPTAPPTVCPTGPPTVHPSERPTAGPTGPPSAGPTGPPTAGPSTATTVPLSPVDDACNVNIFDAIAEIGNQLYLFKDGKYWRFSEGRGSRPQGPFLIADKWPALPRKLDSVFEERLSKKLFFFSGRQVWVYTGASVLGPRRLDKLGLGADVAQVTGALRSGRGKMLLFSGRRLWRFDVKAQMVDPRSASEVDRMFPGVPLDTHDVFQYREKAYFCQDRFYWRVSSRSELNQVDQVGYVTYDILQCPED

As for `COc1ccc(S(=O)(=O)N(Cc2cccnc2)[C@@H](C(=O)NO)C(C)C)cc1`, the inhibition entry in data set [1], in data set [2] and in data set [3] was “Active” throughout.

As for `CC(C)ON([C@H](CCNC(=O)CCCNC(=O)c1cccc(C(=O)NCCCC(=O)NCC[C@H](C(=O)NO)N(OC(C)C)S(=O)(=O)c2ccc(-c3ccccc3)cc2)c1)C(=O)NO)S(=O)(=O)c1ccc(-c2ccccc2)cc1`, the half-inhibitory concentration (IC50) worked out at 5.2 µM at Interstitial collagenase, 0.116 µM in [4], 0.02 µM in data set [5] and 0.038 µM in [6].

For `CC(C)[C@H](C(=O)NO)N(CCNC(=O)c1cccc(C(=O)NCCN([C@@H](C(=O)N(C)C)C(C)C)S(=O)(=O)c2ccc(-c3ccccc3)cc2)c1)S(=O)(=O)c1ccc(-c2ccccc2)cc1`, the half-maximal inhibitory concentration (IC50) was 1.6 µM on Interstitial collagenase, 0.9 µM in [4], 0.107 µM in data set [5] and 0.041 µM in data set [6].

For `CC(C)[C@H](C(=O)O)N(CCNC(=O)c1cccc(C(=O)NCCN([C@@H](C(=O)O)C(C)C)S(=O)(=O)c2ccc(-c3ccccc3)cc2)c1)S(=O)(=O)c1ccc(-c2ccccc2)cc1`, in the data set listed under Homo sapiens, the Ratio IC50 stood at 450. For the same compound, the inhibition result in [7], in data set [1] and in [9] was “Active” throughout. The half-inhibitory concentration (IC50) on Interstitial collagenase came to 11.8 µM; in [4] it was 2.2 µM; in data set [5] it was 0.063 µM; in data set [6], 0.026 µM. Moreover, the Activity entry in data set [8], in [10] and in [11] was “Non-Toxic” each time.

With `CC(C)[C@H](C(=O)NO)N(CCNC(=O)c1cccc(C(=O)NCCN([C@@H](C(=O)NO)C(C)C)S(=O)(=O)c2ccc(-c3ccccc3)cc2)c1)S(=O)(=O)c1ccc(-c2ccccc2)cc1`, the inhibition entry in data set [7], in data set [1] and in data set [9] was “Active” throughout. Also, the 50% inhibitory concentration (IC50) is 0.28 µM on Interstitial collagenase, 0.25 µM in data set [4], 0.01 µM in [5] and 0.0055 µM in data set [6]. Also, the Activity entry in [8], in [10] and in [11] was “Non-Toxic” in each case.

As to `CC(C)[C@H](C(=O)O)N(CCNC(=O)c1cccc(C(=O)NCCN([C@@H](C(=O)N(C)C)C(C)C)S(=O)(=O)c2ccc(-c3ccccc3)cc2)c1)S(=O)(=O)c1ccc(-c2ccccc2)cc1`, the IC50 at Interstitial collagenase came to 2.05 µM; in data set [4] it was 0.85 µM; in data set [5], 0.11 µM; in [6], 0.034 µM.

As for `CC(C)[C@H](C(=O)NO)N(CCNC(=O)c1ccccc1)S(=O)(=O)c1ccc(-c2ccccc2)cc1`, the inhibition entry in data set [7] and in data set [9] was “Active” each time. Moreover, the IC50 on Interstitial collagenase was 0.013 µM; in [4], 0.023 µM; in data set [5] it was 0.00016 µM; in data set [6], 0.0025 µM. Moreover, the Activity result in data set [8], in data set [10] and in data set [11] was “Non-Toxic” in each case.

With `CC(C)[C@H](C(=O)O)N(CCNC(=O)c1ccccc1)S(=O)(=O)c1ccc(-c2ccccc2)cc1`, the inhibition result in data set [7] and in data set [9] was “Active” throughout. Also, the half-inhibitory concentration (IC50) at Interstitial collagenase is 16 µM; in data set [4], 1.83 µM; in data set [5], 0.17 µM; in data set [6], 0.51 µM. Also, the Activity result in data set [8], in data set [10] and in data set [11] was “Non-Toxic” throughout.

Values taken from ChEMBL document CHEMBL3877335, “Bifunctional Inhibitors as a New Tool To Reduce Cancer Cell Invasion by Impairing MMP-9 Homodimerization” (ACS Med Chem Lett, 2017).
